Data from ChEMBL document CHEMBL1201862, “PubChem BioAssay data set” (2004).
Active and inactive are the calls of the source.

Columns and labels:
[1] = molecular target: T1, Mannose-6-phosphate isomerase (Homo sapiens, UniProt P34949); assay: MPI inhibition at elevated mannose 6-phosphate – biochemical, fluorescence intensity, high mannose 6-phosphate, primary screen (AID 1220)
T1 sequence (P34949 whole entry): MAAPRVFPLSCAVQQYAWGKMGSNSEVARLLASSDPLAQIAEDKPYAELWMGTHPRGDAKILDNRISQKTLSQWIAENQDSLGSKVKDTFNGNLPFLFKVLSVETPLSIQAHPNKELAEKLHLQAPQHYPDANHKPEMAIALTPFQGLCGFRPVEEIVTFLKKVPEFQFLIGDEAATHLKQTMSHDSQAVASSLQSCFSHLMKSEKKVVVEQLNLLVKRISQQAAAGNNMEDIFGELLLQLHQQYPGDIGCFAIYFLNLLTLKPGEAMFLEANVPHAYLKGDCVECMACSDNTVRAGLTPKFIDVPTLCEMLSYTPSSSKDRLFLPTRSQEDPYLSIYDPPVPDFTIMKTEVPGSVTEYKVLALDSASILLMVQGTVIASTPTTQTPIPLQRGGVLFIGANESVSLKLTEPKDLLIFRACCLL

cells [2] = format: functional, cell-based
cells [3] = format: functional, cell-based; remark: listed apart in the source
[4] = molecular target: T2, Alkaline phosphatase, tissue-nonspecific isozyme (Homo sapiens, UniProt P05186); assay: potency against alkaline phosphatase TNAP – biochemical, luminescent, dose response, SAR follow-up (AID 1056)
T2 sequence (P05186 whole entry): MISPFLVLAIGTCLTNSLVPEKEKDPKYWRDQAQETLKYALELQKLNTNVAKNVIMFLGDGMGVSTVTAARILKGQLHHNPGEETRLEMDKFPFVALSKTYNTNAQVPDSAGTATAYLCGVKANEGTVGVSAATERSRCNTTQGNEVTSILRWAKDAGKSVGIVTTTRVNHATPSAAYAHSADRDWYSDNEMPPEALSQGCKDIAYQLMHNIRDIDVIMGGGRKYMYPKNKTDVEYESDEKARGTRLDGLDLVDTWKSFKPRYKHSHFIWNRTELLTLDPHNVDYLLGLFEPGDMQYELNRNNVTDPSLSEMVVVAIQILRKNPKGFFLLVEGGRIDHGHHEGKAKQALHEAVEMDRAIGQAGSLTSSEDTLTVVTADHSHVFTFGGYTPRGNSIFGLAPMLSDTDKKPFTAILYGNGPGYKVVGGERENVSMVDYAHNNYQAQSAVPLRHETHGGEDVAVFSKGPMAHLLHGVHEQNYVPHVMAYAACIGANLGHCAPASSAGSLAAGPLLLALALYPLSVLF

[5] = molecular target: Glyceraldehyde-3-phosphate dehydrogenase (Homo sapiens, UniProt P04406)
Glyceraldehyde-3-phosphate dehydrogenase, sequence (P04406 whole entry): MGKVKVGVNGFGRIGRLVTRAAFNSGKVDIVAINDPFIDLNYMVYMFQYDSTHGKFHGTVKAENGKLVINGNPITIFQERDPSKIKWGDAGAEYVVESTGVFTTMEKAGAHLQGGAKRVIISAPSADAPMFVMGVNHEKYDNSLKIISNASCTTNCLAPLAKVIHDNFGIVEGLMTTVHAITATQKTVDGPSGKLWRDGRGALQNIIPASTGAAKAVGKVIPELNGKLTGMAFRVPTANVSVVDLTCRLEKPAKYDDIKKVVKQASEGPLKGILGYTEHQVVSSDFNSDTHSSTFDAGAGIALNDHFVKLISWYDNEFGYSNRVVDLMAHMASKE

[6] = molecular target: T3, Sentrin-specific protease 8 (Homo sapiens, UniProt Q96LD8); format: functional
T3 sequence (Q96LD8 whole entry): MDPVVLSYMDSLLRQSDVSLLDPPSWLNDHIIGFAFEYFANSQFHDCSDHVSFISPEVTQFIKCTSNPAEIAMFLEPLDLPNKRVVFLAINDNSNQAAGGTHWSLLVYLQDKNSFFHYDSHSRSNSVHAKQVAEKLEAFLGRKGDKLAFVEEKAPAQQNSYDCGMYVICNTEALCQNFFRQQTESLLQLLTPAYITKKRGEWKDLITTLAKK

[7] = molecular target: T3, Sentrin-specific protease 8; format: functional; remark: listed apart in the source
[8] = molecular target: T4, Heat shock factor protein 1 (Mus musculus, UniProt P38532); assay: decrease of HSF1-responsive luciferase luminescence – cell-based, NIH3T3, dose retest, confirmation (AID 2382); format: functional;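 also: NIH3T3 fibroblasts with HSF1-driven luciferase reporter stressed by proteasome inhibitor MG132; luminescence from HSF1-driven luciferase expression after 8 hours of MG132 stress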
T4 sequence (P38532 whole entry): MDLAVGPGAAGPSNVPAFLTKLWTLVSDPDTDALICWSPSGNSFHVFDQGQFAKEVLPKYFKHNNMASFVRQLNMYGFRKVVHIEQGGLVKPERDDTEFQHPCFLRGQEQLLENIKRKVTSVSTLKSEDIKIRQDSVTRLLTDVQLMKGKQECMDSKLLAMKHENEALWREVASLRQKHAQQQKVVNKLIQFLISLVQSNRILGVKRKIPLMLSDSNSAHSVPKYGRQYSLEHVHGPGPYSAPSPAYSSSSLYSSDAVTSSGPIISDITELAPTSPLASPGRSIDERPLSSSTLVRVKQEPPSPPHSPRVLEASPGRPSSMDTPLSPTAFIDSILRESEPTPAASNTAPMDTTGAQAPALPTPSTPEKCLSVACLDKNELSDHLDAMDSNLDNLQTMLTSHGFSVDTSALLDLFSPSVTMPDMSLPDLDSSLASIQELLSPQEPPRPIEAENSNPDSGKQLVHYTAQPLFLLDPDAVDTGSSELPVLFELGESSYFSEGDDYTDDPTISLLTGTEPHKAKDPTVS

[9] = loss of viability in HepG2 cells – cell-based, CellTiter-Glo, cherry-picked, cytotoxicity control for Shn3 inhibitor project, dose response (AID 624134); format: functional
[10] = molecular target: T5, Replicative DNA helicase DnaB (Mycobacterium tuberculosis, UniProt P9WMR3); assay: DnaB intein splicing inhibitors, dose response, biochemical, cell-free fluorescence (AID 449749); format: functional
T5 sequence (P9WMR3 whole entry): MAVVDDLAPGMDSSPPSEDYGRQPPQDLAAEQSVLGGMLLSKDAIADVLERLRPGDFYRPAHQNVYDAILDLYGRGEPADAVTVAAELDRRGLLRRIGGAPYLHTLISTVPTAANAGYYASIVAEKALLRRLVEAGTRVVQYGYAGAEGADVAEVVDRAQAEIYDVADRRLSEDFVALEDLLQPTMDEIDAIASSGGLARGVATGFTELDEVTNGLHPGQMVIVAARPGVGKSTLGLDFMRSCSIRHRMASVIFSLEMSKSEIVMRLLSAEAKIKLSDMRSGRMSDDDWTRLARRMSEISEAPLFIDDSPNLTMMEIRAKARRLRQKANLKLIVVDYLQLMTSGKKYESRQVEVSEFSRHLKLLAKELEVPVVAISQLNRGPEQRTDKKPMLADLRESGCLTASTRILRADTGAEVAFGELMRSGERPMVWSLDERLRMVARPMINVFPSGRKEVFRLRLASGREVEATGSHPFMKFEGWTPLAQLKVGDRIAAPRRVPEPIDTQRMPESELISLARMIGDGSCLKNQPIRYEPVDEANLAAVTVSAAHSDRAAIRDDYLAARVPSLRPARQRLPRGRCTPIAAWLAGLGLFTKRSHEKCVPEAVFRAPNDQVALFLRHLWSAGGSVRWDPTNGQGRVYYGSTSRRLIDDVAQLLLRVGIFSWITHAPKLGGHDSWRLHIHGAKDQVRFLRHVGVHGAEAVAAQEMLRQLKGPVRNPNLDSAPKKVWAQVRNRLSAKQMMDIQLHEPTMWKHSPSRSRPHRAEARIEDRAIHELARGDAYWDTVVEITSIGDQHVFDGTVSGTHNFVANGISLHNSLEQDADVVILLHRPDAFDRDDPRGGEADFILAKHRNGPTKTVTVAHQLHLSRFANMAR

[11] = non-specific 3'UTR reporter inhibition in Clone20-Shn3RL – cell-based, Renilla luciferase, cherry-picked, counter-screen for Shn3 inhibitor project, dose response (AID 624133); format: functional
Protein RecA = molecular target: T6, Protein RecA (Mycobacterium tuberculosis, UniProt P9WHJ3); assay: Fluorescence Cell-Free Homogeneous Dose Retest to Identify Inhibitors of RecA-Intein Splicing Activity. [Related pubchem assays (depositor defined):AID2097, AID2223, AID489010, AID492950]; format: functional
T6 sequence (P9WHJ3 whole entry): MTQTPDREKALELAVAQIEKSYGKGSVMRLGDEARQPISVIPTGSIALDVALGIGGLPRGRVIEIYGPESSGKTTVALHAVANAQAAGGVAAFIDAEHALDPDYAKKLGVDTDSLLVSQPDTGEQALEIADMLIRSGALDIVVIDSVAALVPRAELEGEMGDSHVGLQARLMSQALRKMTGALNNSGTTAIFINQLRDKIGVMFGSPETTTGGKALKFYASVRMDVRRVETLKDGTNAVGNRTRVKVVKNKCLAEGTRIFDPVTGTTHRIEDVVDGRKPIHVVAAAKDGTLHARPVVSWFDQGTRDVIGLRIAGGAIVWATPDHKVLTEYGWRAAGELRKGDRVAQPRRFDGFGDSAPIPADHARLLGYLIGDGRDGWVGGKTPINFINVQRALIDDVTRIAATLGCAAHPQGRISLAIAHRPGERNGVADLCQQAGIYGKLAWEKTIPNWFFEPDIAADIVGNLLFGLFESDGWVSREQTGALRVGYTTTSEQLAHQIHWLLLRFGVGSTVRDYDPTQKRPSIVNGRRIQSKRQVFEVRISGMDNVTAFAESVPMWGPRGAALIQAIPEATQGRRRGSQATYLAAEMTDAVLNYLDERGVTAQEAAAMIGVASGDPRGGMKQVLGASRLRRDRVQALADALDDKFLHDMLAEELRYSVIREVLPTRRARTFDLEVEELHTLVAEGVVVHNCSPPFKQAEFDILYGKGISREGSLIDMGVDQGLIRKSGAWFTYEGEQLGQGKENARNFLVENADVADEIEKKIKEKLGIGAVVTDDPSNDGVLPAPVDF

[12] = reduction of Shn3 3'UTR-driven luciferase in osteoblasts – cell-based, Clone20 osteoblasts, firefly luciferase, cherry-picked, dose response (AID 624132); format: functional;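 also: firefly luciferase luminescence from reporter carrying the Shn3 3'UTR in osteoblasts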
[13] = HIV-1 AD8 envelope cell-cell fusion blockers – cherry-pick, dose response (AID 652062); format: functional, cell-based;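 also: luciferase signal from cell-cell fusion driven by HIV-1 clade B AD8 Env; potency is for inhibitors of fusion seen as a drop in luminescence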
[14] = molecular target: T7, Rac GTPase-activating protein 1 (Homo sapiens, UniProt Q9H0H5); assay: blockers of MgcRacGAP-driven Rac1 GTP hydrolysis – biochemical, ADP Hunter fluorescence, primary and confirmatory, confirmation (AID 624330); format: functional
T7 sequence (Q9H0H5 whole entry): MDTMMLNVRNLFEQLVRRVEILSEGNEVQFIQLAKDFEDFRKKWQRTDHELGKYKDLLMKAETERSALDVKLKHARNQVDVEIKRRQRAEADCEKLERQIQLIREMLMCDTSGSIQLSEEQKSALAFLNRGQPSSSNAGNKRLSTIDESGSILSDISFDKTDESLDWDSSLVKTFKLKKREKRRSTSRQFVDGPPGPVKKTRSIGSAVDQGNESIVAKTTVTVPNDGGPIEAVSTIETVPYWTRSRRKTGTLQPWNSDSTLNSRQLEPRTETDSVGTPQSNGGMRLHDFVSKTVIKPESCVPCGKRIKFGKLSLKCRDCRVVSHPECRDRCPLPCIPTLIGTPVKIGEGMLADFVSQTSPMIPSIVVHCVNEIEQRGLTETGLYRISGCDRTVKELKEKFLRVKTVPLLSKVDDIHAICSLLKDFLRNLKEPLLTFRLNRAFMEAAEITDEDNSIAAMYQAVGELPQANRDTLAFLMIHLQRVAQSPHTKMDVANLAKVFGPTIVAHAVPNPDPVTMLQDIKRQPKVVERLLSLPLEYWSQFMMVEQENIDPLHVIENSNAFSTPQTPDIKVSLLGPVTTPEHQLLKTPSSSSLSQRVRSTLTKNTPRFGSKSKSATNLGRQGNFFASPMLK

Compound: Cn1cccc1/C=C1\CCc2ccccc2C1=O
- IC50 [1]: > 50 µM (not active)

Compound: Cc1ccc(-n2nc3c(=O)n(CC(=O)NCc4ccccc4)nc(C)c3c2C)cc1
- EC50 (cells [2]): > 350 µM (not active)
- EC50 (cells [3]): > 350 µM (not active)

Compound: c1cncc(Cn2ccnc2)c1
- IC50 [4]: > 100 µM (inactive)
- IC50 [5]: > 100 µM (not active)

Compound: OCCC1CN(Cc2c(O)ccc3ccccc23)CCN1CCc1ccccc1 (stereo unspecified)
- IC50 [1]: > 50 µM (not active)

Compound: CCC1CCc2sc(C(=O)NCc3ccccn3)cc2C1 (stereo unspecified)
- EC50 (cells [2]): 52.4 µM (active)
- EC50 (cells [3]): > 350 µM (not active)

Compound: CN1CCN(CC(=O)n2c3c(c4ccccc42)CCCC3)CC1
- IC50 [6]: 16.6 µM (active)
- IC50 [7]: > 100 µM (inactive)
- EC50 [8]: > 195 µM (not active)

Compound: O=C1C(Cl)=C(N2CCN(c3ncccn3)CC2)C(=O)N1c1cccc(C(F)(F)F)c1
- IC50 [5]: > 50 µM (inconclusive)

Compound: Cc1ccc(C(=O)N2C(=S)C(c3ccc(F)cc3)=NC23CCN(C)CC3)cc1
- IC50 [6]: 15 µM (active)
- IC50 [7]: > 100 µM (inactive)

Compound: COc1ccc(OC)c(S(=O)(=O)Nc2ccc[nH]c2=O)c1
- IC50 [4]: 6.32 µM (active)
- IC50 [5]: > 100 µM (not active)

Compound: COc1ccccc1-c1cc(C(F)(F)F)nc(S(=O)(=O)CCCC(=O)N2CCCCC2C)n1 (stereo unspecified)
- EC50 (cells [2]): > 350 µM (not active)
- AC50 [9]: 25.7 µM (active)
- AC50 [10]: 1.97 µM (active)
- AC50 [11]: 8.84 µM (active)
- EC50 (Protein RecA): 3.11 µM (active)
- EC50 (cells [3]): > 350 µM (not active)
- AC50 [12]: 2.65 µM (active)

Compound: Cc1cc(N2CCOCC2)nc2ccc(NC(=S)N3CCCCC3C)cc12 (stereo unspecified)
- IC50 [1]: > 50 µM (not active)

Compound: CC(=O)Nc1nnc(SCCc2ccccc2)[nH]1
- IC50 [4]: > 100 µM (inactive)
- IC50 [5]: > 100 µM (not active)

Compound: COc1cc(NC(c2ccccc2)c2ccccc2)cc(OC)c1OC
- IC50 [1]: > 50 µM (not active)

Compound: Nc1ccn([C@@H]2O[C@H](C(=O)NCc3ccc4c(c3)OCO4)[C@@H](O)[C@H]2O)c(=O)n1
- AC50 [13]: 0.723 µM (active)

Compound: Cc1ccc(O)c(/C=N/c2ccc3[nH]ncc3c2)c1
- IC50 [14]: 27.7 µM (active)
- IC50 [1]: > 50 µM (not active)

Compound: c1cncc(-c2nccs2)c1
- IC50 [4]: > 100 µM (inactive)
- IC50 [5]: > 100 µM (not active)

Compound: O=C(O)c1ccc(N2C(=O)CSC2=S)cc1
- EC50 (cells [2]): > 350 µM (not active)
- EC50 (cells [3]): > 350 µM (not active)

Compound: O=C(c1[nH]nc2c1COc1ccccc1-2)N1CCCC1
- IC50 [4]: 0.289 µM (active)
- IC50 [5]: > 100 µM (not active)
